Assay results taken from PubChem BioAssay (NCI).
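How tested: cells in 96-well plates exposed to compound for 48 hours at five concentrations. TGI: total growth inhibition.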

Experiments:
Experiment in all cases: DTP human tumour cell line panel, 48 h
MDA-MB-231 breast = system: MDA-MB-231 breast
U251 CNS = system: U251 CNS
HT29 colon = system: HT29 colon
HL-60(TB) leukemia = system: HL-60(TB) leukemia
HCC-2998 colon = system: HCC-2998 colon
SK-MEL-5 melanoma = system: SK-MEL-5 melanoma
SNB-19 CNS = system: SNB-19 CNS
MDA-MB-435 = system: MDA-MB-435
COLO 205 colon = system: COLO 205 colon
HOP-92 NSCLC = system: HOP-92 NSCLC
LOX IMVI melanoma = system: LOX IMVI melanoma

SMILES | TGI (MDA-MB-231 breast) [µM] | TGI (U251 CNS) [µM] | TGI (HT29 colon) [µM] | TGI (HL-60(TB) leukemia) [µM] | TGI (HCC-2998 colon) [µM] | TGI (SK-MEL-5 melanoma) [µM] | TGI (SNB-19 CNS) [µM] | TGI (MDA-MB-435) [µM] | TGI (COLO 205 colon) [µM] | TGI (HOP-92 NSCLC) [µM] | TGI (LOX IMVI melanoma) [µM]
COc1ccc(NC(=S)N/N=C\c2ccc(NC(C)=O)cc2)cc1 | > 100 | > 100 | > 100 | > 100 | > 100 | > 100 | > 100 | > 100 | > 100 | > 100 | > 100
Cc1ccc(S(=O)(=O)N2CCN(S(=O)(=O)c3ccc(C)cc3)CCN(S(=O)(=O)c3ccc(C)cc3)Cc3cc(C#N)c(C#N)cc3CN(S(=O)(=O)c3ccc(C)cc3)CC2)cc1 | > 100 | > 100 | > 100 | > 100 | > 100 | > 100 | > 100 | > 100 | > 100 | 89.3 | > 100
CC(C)(C)c1cc(-c2cc(C(C)(C)C)[nH]n2)n[nH]1 | > 100 | > 100 | > 100 | > 100 | > 100 | > 100 | > 100 | > 100 | > 100 | > 100 | > 100
CC(=O)OCC(C)C1=C(OC(C)=O)C(=O)C2(C)C/C=C(/C)CC/C=C(\C)CCC(OC(C)=O)C(C)CCC12 (stereo not drawn) | 27.7 | 31.3 | 33.5 | 27.5 | 31.2 | 30.2 | 43.9 | 38.2 | 37.8 | 20.3 | 35
COc1ccc(OC)c(CSc2ccc(OC)c(OC)c2)c1 | > 100 | > 100 | > 100 | > 100 | > 100 | > 100 | > 100 | > 100 | > 100 | 98.3 | > 100
FC(F)(F)c1ccc(Cc2nc3cc4ccccc4cc3[nH]2)cc1 | > 100 | > 100 | > 100 | > 100 | > 100 | > 100 | > 100 | > 100 | > 100 | 47.8 | > 100
CC1(C)CC(O)C2=C(O1)C(=O)c1ncccc1C2=O (stereo not drawn) | 5.92 | 3.21 | 35.8 | 4.15 | 14.6 | 3.1 | 9.2 | 3.3 | 4.89 | 5.44 | 3.4
CC(=O)OC(CN1CCN(c2ccccn2)CC1)Cn1sc2nc(C)cc(C)c2c1=O (stereo not drawn) | 32.6 | 32.1 | 34.4 | 55.5 | 34.4 | 26.1 | > 100 | 34.5 | 31.2 | > 100 | 47.4
Cn1c(NNc2ccccc2)cc(=O)[nH]c1=O | > 100 | > 100 | > 100 | > 100 | 97.5 | 70.1 | > 100 | 43.1 | > 100 | > 100 | > 100
CC(=O)OCC(OC(C)=O)C(OC(C)=O)C(/C=N\Nc1nc2ccccc2c(=O)[nH]1)=N\Nc1nc2ccccc2c(=O)[nH]1 (stereo not drawn) | > 100 | > 100 | > 100 | > 100 | 36.3 | > 100 | > 100 | > 100 | > 100 | > 100 | > 100
CC(=O)C1C(=O)C(=O)N(c2ccccc2)C1=O (stereo not drawn) | > 100 | > 100 | > 100 | > 100 | > 100 | > 100 | > 100 | > 100 | > 100 | > 100 | > 100
COc1ccc(CC2C3=C(CCN2C(=O)C2CCC2)CC2(CC3)OCCO2)cc1O (stereo not drawn) | > 100 | > 100 | > 100 | 76.9 | > 100 | > 100 | > 100 | 20 | 48 | > 100 | > 100
COc1cc(C(=O)/C=C/c2ccc(OCCSCCCCCCCCCCSCCOc3ccc(/C=C/C(=O)c4cc(OC)c(OC)c(OC)c4)cc3)cc2)cc(OC)c1OC | > 100 | > 100 | > 100 | > 100 | > 100 | > 100 | > 100 | > 100 | > 100 | > 100 | > 100
